Assay results from patent US12122848B2, “Compositions and methods for treating fibroids” (THE LUNDQUIST INSTITUTE FOR BIOMEDICAL INNOVATION AT …, priority 2020, dated 2024).
Entries after “also recorded” stand apart in the source; their conditions may differ.

Columns and labels:
[1] = system: leiomyoma explants; test: CYP1B1 expression in leiomyoma explants (AhR signaling marker); assay type: cell-based, human; conditions: fresh leiomyoma explants, 48 hours; kynurenine 100 μM, tryptophan different doses (mM), 680C91 50 μM
[2] = system: LSMC spheroids; test: Kynurenine treatment of LSMC spheroids, expression of AhR, IDO1, TDO2 and COL1A1; assay type: cell-based, human; conditions: 100 μM, 72 hours, N=2
Experimental: FIG. 6A-D. (A) The relative (mean±SEM) expression of CYP1B1 in paired (N=43) myometrium (Myo) and leiomyoma (Lyo). (B) Representative images show the levels of AhR and ARNT in fresh subfractionated cytoplasmic (Cyto) and nuclear (Nu) phase from myometrium (Myo) and paired leiomyoma (Lyo) with Calpain 1 and Lamin B1 served as markers for the respective subcellular fractions (N=3). (C) Representative images of CYP1B1 in leiomyoma explants after treatment with kynurenine (100 μM), different doses of tryptophan (mM) and TDO2 inhibitor (680C91, 50 μM) for 48 hours with a Ponceau S-stained protein band on the nitrocellulose membrane used as a loading control (N=2). (D) The effect of kynurenine (KYN, 100 μM) treatment for 72 hours on the expression of AhR, IDO1, TDO2 and COL1A1 in LSMC spheroids (N=2). The results are presented as mean±SEM with P values (*:p<0.05) indicated by corresponding lines.
Using fresh leiomyoma explants we confirmed that the expression of CYP1B1 was increased by the treatment of kynurenine (Kyn) and tryptophan, while decreased following TDO2 inhibitor treatment (FIG. 6C).

[3] = system: LSMC (leiomyoma smooth muscle cells) spheroids; test: Cell proliferation in LSMC spheroids, CellTiter-Glo 3D Cell Viability Assay; assay type: cell-based, human
Experimental: (§1) Isolated MSMC and LSMC were plated in 6-well (1×10^5 cells/well) or 96-well (5×10^3 cells/well) plates which were coated with 0.5% agarose gel and incubated 48 hours for spheroids formation.
(§2) The concentrations of inhibitors used was based on earlier studies and the cell proliferation was determined using the CellTiter-Glo 3D Cell Viability Assay (Promega, Madison, WI) according to the manufacturer's protocol. The assay was performed in six replicates per condition and repeated four times using cells isolated from four different patients.

[4] = system: MSMC (myometrial smooth muscle cells) spheroids; test: Cell proliferation in MSMC spheroids, CellTiter-Glo 3D Cell Viability Assay; assay type: cell-based, human
Experimental: as §1, §2

[5] = system: LSMC spheroids; test: Immunoblotting of ECM and inflammation proteins in LSMC spheroids after inhibitor treatment; assay type: cell-based, human
Experimental: Total protein isolated from paired tissue samples and MSMC and LSMC spheroids following treatment conditions was subjected to immunoblotting. Briefly, samples were suspended in RIPA buffer containing 1 mM EDTA and EGTA (Boston BioProducts, Ashland, MA) supplemented with 1 mM PMSF and a complete protease inhibitor mixture (Roche Diagnostics, Indianapolis, IN), sonicated, and centrifuged at 4° C. for 10 min at 14,000 rpm. The concentration of protein was determined using the BCA™ Protein Assay Kit (Thermo Scientific Pierce, Rockford, IL). Equal aliquots (thirty micrograms) of total protein for each sample was denatured with SDS-PAGE sample buffer and separated by electrophoresis on a SDS polyacrylamide gel. After transferring the samples to a nitrocellulose membrane, the membrane was blocked with TBS-Tween+5% milk and probed with the following primary antibodies: IDO1 (Cell Signaling Technology, Danvers, MA), TDO2, COL3A1 (Proteintech Group, Inc, Chicago, Illinois) and COL1A1 (Fitzgerald Industries Intl, Acton, MA). The membranes were washed with TBS containing 0.1% Tween-20 wash buffer after each antibody incubation cycle. SuperSignal West Pico Chemiluminescent Substrate™ (Thermo Scientific Pierce) was used for detection, and photographic emulsion was used to identify the protein bands, which were subsequently quantified by densitometry. The membranes were also stripped and probed with glyceraldehyde 3-phosphate dehydrogenase (GAPDH) antibody (Santa Cruz Biotechnology, Santa Cruz, CA) serving as the loading control. The densities of the specific protein bands were determined using image J program (imagej.nih.gov/ij/), normalized to GAPDH or a band obtained from staining the membrane with Ponceau S. Results were expressed as means±SEM as a ratio relative to the control group designated as 1.
as §1

[6] = system: leiomyoma explants; test: COL1A1 and COL3A1 in culture-conditioned media of leiomyoma explants; assay type: cell-based, human; conditions: fresh leiomyoma explants, different doses, 48 hours, N=2
Experimental: FIG. 5A-F. (A) Representative images of COL1A1 and COL3A1 in culture-conditioned media of leiomyoma explants after treatment with different doses of TDO2 inhibitor, 680C91 for 48 hours (N=2). An equal volume of conditioned media was used, and a Ponceau S-stained protein band on the nitrocellulose membrane was used as a loading control. (B) The effect of DMSO (control) and E2+P4 (10^−8M each) after 48 hours of culture on the expression of IDO1 and TDO2 in LSMC spheroids (N=2). (C) Representative western blot analysis of TDO2 following transfection of LSMC spheroids with anti-miR-200c oligonucleotides for 96 hrs. […] (E-F) QRT-PCR analysis of TDO2 (E), miR-29c and miR-200c (F) in LSMC spheroids after transfection of siRNA negative control (siNC) or TDO2 siRNA oligonucleotides (siTDO2) for 96 hours (N=3). The results are presented as mean±SEM with P values (*:p<0.05) indicated by corresponding lines.
Using fresh leiomyoma explants, we confirmed that the expression of COL1A1 and COL3A1 was decreased in culture-conditioned media following treatment with different doses of TDO2 inhibitor, 680C91 (FIG. 5A).

[7] = system: leiomyoma explants; test: Preliminary experiment: leiomyoma explants implanted subcutaneously in ovariectomized CB-17 scid/beige mice; assay type: in vivo; conditions: 8 mg/Kg daily via IP, 8 weeks
Experimental: This example also performed a preliminary experiment using freshly collected leiomyoma explants implanted subcutaneously on the flank of ovariectomized CB-17 scid/beige female mice (N=2), and treated with vehicle or TDO2 inhibitor (680C91; 8 mg/Kg daily via IP) for 8 weeks. After sacrifice, plasma was collected and analyzed for blood chemistry panel (Abaxis).

[8] = system: leiomyoma explants; test: In vivo experiment: leiomyoma explants implanted subcutaneously in ovariectomized CB-17 scid/beige mice; conditions: 10 mg/Kg daily, i.p., 8 weeks
Experimental: FIG. 7A-E. (A) Representative of the gross appearance of leiomyoma specimens (arrow) implanted subcutaneously in CB-17 SCID/Beige female mice following 8 weeks treatment of vehicle (left) or TDO2 inhibitor (right; 680C91; 10 mg/Kg daily via IP). (B) The relative explants weight between vehicle and 680C91 treated group after 8 weeks treatment (n=6). The ratio of plasma kynurenine vs tryptophan levels was shown in (C). (D) QRT-PCR analysis of COL1A1, FN1, DNMT1 and CCND1 expression in explants (n=6) implanted subcutaneously after 8 weeks treatment of vehicle or TDO2 inhibitor. (E) Paraformaldehyde-fixed paraffin-embedded xenograft explants of vehicle (a) or TDO2 inhibitor (b) stained with Masson's Trichrome reagent. […] The results are presented as mean±SEM with P values (*:p<0.05) indicated by corresponding lines.
We also performed the in vivo experiment using freshly collected leiomyoma explants implanted subcutaneously in the flank of ovariectomized CB-17 scid/beige female mice (N=6), and treated with vehicle or TDO2 inhibitor (680C91; 10 mg/Kg daily, i.p.) for 8 weeks (FIG. 7A). After sacrifice, the explants weight was determined and the collected plasma was analyzed for levels of tryptophan, kynurenine and blood chemistry panel (Abaxis).

[9] = Example 3, various concentrations, 48 hours, n=4
[10] = Example 2, different doses, 48 h
[11] = Example 3, 48 hours, different concentrations

Nc1ccccc1C(=O)CC(N)C(=O)O (stereo not drawn) [kynurenine]
expression of CYP1B1 [1]: increased | expression of AhR [2]: increase | expression of COL1A1 [2]: increase | expression of IDO1 [2]: increase | expression of TDO2 [2]: increase

N[C@@H](Cc1c[nH]c2ccccc12)C(=O)O [tryptophan]
expression of CYP1B1 [1]: increased

Fc1ccc2c(/C=C/c3cccnc3)c[nH]c2c1 [Compound 680C91, 6-Fluoro-3-[(1E)-2-(3-pyridinyl)ethenyl]-1H-indole]
cell proliferation ([3]; Example 2): significantly suppressed | spheroids cell proliferation [3, 9]: significantly inhibited; also recorded: significantly repressed | cell proliferation ([4]; Example 2): significantly suppressed | spheroids cell proliferation [4, 9]: significantly repressed | protein expression of COL3A1 [5, 10]: down-regulated dose dependently | protein expression of IKBKB [5, 10]: down-regulated dose dependently | protein expression of fibronectin [5, 10]: down-regulated dose dependently | expression of COL1A1 [5, 11]: significantly reduced; also recorded: significantly repressed | expression of COL3A1 [5, 11]: significantly reduced; also recorded: significantly repressed | expression of COL1A1 in culture-conditioned media [6]: decreased | expression of COL3A1 in culture-conditioned media [6]: decreased | expression of CYP1B1 [1]: decreased | TDO2 expression [7]: down-regulated | effects on body weight [7]: no effects | effects on food consumption [7]: no effects | expression of COL1A1 [7]: down-regulated | expression of MyD88 [7]: down-regulated | expression of TGF-β3 [7]: down-regulated | tumor size ([7]; N=2): reduced | adverse effects on blood chemistry including liver and renal panels ([7]; plasma): no adverse effects | effects on body weight [8]: no effects | effects on food consumption [8]: no effects | explants weight ([8]; N=6): lower weight | expression of CCND1 ([8]; explants, QRT-PCR): down-regulated | expression of COL1A1 ([8]; explants, QRT-PCR): down-regulated | expression of DNMT1 ([8]; explants, QRT-PCR): down-regulated | expression of FN1 ([8]; explants, QRT-PCR): down-regulated | adverse effects on blood chemistry including liver and renal panels ([8]; plasma): no adverse effects | ratio of kynurenine/tryptophan ([8]; plasma): decreased | deposition of collagens, keratin and cytoplasm, Masson's Trichrome staining ([8]; xenograft explants): less deposition
